In patent US20110060012A1, “4-[3-(ARYLOXY)BENZYLIDENE]-3-METHYL PIPERIDINE 5-MEMBERED ARYL CARBOXAMIDE COMPOUNDS USEFUL AS FAAH INHIBITORS” (Pfizer Inc., priority 2008, published 2011):

These compounds were tested against T1, Human FAAH (Homo sapiens, UniProt O00519) (assay: FAAH enzyme assay (glutamate dehydrogenase-coupled, oleamide substrate)). Conditions: human FAAH 1-4 nM, pH 7.4, 30° C., absorbance at 340 nm over 90 min, read-out: hFAAH Kinact/Ki.
T1 construct: made in house
T1 sequence (O00519 1-579): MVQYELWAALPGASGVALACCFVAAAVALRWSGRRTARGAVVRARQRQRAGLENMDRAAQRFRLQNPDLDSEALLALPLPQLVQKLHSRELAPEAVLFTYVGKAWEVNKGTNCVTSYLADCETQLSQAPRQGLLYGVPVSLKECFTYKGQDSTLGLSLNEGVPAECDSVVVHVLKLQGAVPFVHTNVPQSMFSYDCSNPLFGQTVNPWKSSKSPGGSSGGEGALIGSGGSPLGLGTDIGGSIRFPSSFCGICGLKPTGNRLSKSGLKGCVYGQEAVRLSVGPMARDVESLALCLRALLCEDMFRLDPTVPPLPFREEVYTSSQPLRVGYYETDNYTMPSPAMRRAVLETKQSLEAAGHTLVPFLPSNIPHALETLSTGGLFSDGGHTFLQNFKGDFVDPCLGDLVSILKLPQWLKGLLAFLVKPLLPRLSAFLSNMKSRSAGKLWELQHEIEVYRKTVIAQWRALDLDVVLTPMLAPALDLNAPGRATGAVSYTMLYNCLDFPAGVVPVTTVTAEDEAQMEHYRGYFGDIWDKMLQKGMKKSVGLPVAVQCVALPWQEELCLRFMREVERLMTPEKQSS
Type: biochemical
Experimental: A FAAH enzyme assay may be carried out as described in W02006/085196 in 384-well clear polystyrene plates in a total volume of 50 μl per well. All percents are by volume. To each well was placed the reaction mixture (40 μl) containing 1-4 nM FAAH, 50 mM NaPi, pH 7.4, 3 mM α-ketoglutarate, 0.15 mM NADH, 7.5 U/ml glutamate dehydrogenase, 2 mM ADP, 1 mM EDTA, and 0.1% Triton X-100 (The concentration shown for each component is the final concentration in the assay). To this mixture was added 5 μl of a compound of Examples 1 to 20 at various concentrations prepared in 50% DMSO (or 5 μl 50% DMSO for controls). This was immediately followed by the addition of 5 μl oleamide (500 μM) dissolved in 75% EtOH/25% DMSO and the reaction mixture is mixed for 1.5 min. The final concentrations of DMSO and EtOH in the assay were each 7.5%. The reactions was then incubated at 30° C. and the absorbance at 340 nm was collected over a period of 90 min with readings taken in 30-second intervals using SpectraMax Plus^384 Microplate Spectrophotometer (Molecular Devices, Sunnyvale, Calif.). Human FAAH used in the assay was prepared as described in the patent application WO 2006/067613. The purity of the enzyme used was greater than 98% based on an analysis by SDS-polyacrylamide gel electrophoresis followed by Coomassie Blue staining.
Initial velocity data (V) is obtained from the slopes of the initial progressive curves. They are plotted as a function of substrate concentration and fit to the Michaelis-Menten equation (1) using Prism (GraphPad Software, Inc., San Diego, Calif.) software to obtain Km and Vmax values.
To obtain potencies of irreversible inhibitors, progressive curves consistent with first order inhibition kinetics (two-step irreversible inhibition mechanism) are fit to equation (2) by nonlinear least squares regressions to determine kobs values at each inhibitor concentration, where [P]t is the absorbance at time t, V0 is a constant related to the steady state rate of the uninhibited reaction, and kobs is the first order rate constant for enzyme inactivation. […]

Row | kinact/KI [M⁻¹ s⁻¹] | Structure (SMILES)
1 | 2850 | Cc1oncc1NC(=O)N1CC/C(=C\c2cccc(Oc3ccc(C(F)(F)F)cn3)c2)C(C)C1 (single isomer, unassigned) [Example 2, (4E)-3-methyl-N-(5-methylisoxazol-4-yl)-4-(3-{[5-(trifluoromethyl)pyridin-2-yl]oxy}benzylidene)piperidine-1-carboxamide]
2 | 624 | Cc1noc(NC(=O)N2CC/C(=C\c3cccc(Oc4ccc(C(F)(F)F)cn4)c3)C(C)C2)c1C (single isomer, unassigned) [Example 1, (4E)-N-(3,4-dimethylisoxazol-5-yl)-3-methyl-4-(3-{[5-(trifluoromethyl)pyridin-2-yl]oxy}benzylidene)piperidine-1-carboxamide]
3 | 4350 | CC1CN(C(=O)Nc2cnoc2)CC/C1=C\c1cccc(Oc2ccc(C(F)(F)F)cn2)c1 (single isomer, unassigned) [Example 3, (4E)-N-isoxazol-4-yl-3-methyl-4-(3-{[5-(trifluoromethyl)pyridin-2-yl]oxy}benzylidene)piperidine-1-carboxamide]
